Non-standard residues stand in square brackets, D forms with d. Residues, ends and D or L forms follow the SMILES beside them.
Tests used:
human MOR [1] = target: T1, human MOR (Homo sapiens, UniProt P35372); assay: [35S]GTPγS binding assay, CHO-hMOR cell membranes; format: biochemical; settings: for % stim.: relative to reference MOR agonist DAMGO, mean ± SEM, n = 3–4
T1 construct: expressed in transfected cells; host or cells: CHO cells (CHO-hMOR), gift of Dr. Lawrence Toll, SRI International
Source text: All data are presented as mean ± SEM. A p < 0.05 was considered statistically significant.

human NOP receptor = target: T2, human NOP receptor (Homo sapiens, UniProt P41146); assay: Radioligand binding, [3H]nociceptin, CHO-hNOP cell membranes; settings: for Ki: CHO-hNOP membranes, [3H]nociceptin 0.1 nM, n = 3, read-out: Opioid Receptor Binding (Ki, nM) NOP
T2 construct: expressed in transfected cells; host or cells: CHO cells (CHO-hNOP), gift of Dr. Lawrence Toll, SRI International

human KOR = target: T3, human KOR (Homo sapiens, UniProt P41145); assay: Radioligand competition binding, [3H]U69,593, CHO-hKOR cell membranes; settings: for Ki: CHO-hKOR membranes, [3H]U69,593 1 nM, mean ± SEM, n = 3, read-out: Opioid Receptor Binding (Ki, nM) KOR
T3 construct: expressed in transfected cells; host or cells: CHO cells (CHO-hKOR), gift of Dr. Lawrence Toll, SRI International

[2] = Body weight changes during chronic s.c. treatment; format: in vivo, mice; settings: chronic administration of 7.8 µmol/kg s.c. twice daily for 5 days, vs. saline
Method: (§1) Experiments were performed with male CD1 mice (8–10 weeks old, 30–35 g body weight) purchased from Janvier Labs (Le Genest-Saint-Isle, France). All animal care and experimental procedures were in accordance with the ethical guidelines for the animal welfare standards of the European Communities Council Directive (2010/63/EU) and were approved by the Committee of Animal Care of the Austrian Federal Ministry of Science and Research. Mice were group-housed (maximum of 5 animals per cage) in a temperature- (21–22 °C) and humidity-controlled (60–70%) specific pathogen-free room with a 12 h light/dark cycle and with free access to food and water. LENART01 and naloxone were prepared in sterile physiological 0.9% saline solution. […]
(§2) Opioid physical dependence was assessed using naloxone-induced withdrawal syndrome in mice as described previously. […] Animals were immediately placed in clear acrylic cylinders, and signs of opioid withdrawal were recorded for 15 min. Monitored behaviors included vertical jumps, paw tremor, head shakes, urine output, the presence/absence of diarrhea, feces output and body weight loss. For each mouse, a global withdrawal score was calculated by summing the values obtained for each sign (one point was assigned to every 3 jumps and 5 paw tremors, respectively, whereas all other signs were given the absolute values recorded during the test). […]

mice [3] = assay: Rotarod test after s.c. administration; format: in vivo; settings: 7.8 and 39 µmol/kg, any time point, vs. saline
Method: (§3) Experiments were performed with male CD1 mice (8–10 weeks old, 30–35 g body weight) purchased from Janvier Labs (Le Genest-Saint-Isle, France). All animal care and experimental procedures were in accordance with the ethical guidelines for the animal welfare standards of the European Communities Council Directive (2010/63/EU) and were approved by the Committee of Animal Care of the Austrian Federal Ministry of Science and Research. Mice were group-housed (maximum of 5 animals per cage) in a temperature- (21–22 °C) and humidity-controlled (60–70%) specific pathogen-free room with a 12 h light/dark cycle and with free access to food and water. LENART01 and naloxone were prepared in sterile physiological 0.9% saline solution. Tested doses of LENART01 were 0.78, 3.9, 7.8 and 39 µmol/kg (1, 5, 10 and 50 mg/kg, respectively). LENART01 or vehicle (saline) were s.c. administered in a volume of 10 µL/g body weight.
Animals were accustomed to the equipment in two training sessions (30 min apart) one day before testing. […] The time spent on the drum was recorded for each mouse before (baseline) and after the s.c. administration of saline or test compound (i.e., 30, 60 and 120 min). […] The rotarod data are expressed as percentage (%) changes from the rotarod latencies obtained before (baseline, B) and after drug administration (test, T) and were calculated as follows: 100 × (T/B). […]

human MOR [4] = target: T1, human MOR; assay: Radioligand competition binding, [3H]DAMGO, CHO-hMOR cell membranes; settings: read-out: Opioid Receptor Binding (Ki, nM) MOR
human DOR = target: T4, human DOR (Homo sapiens, UniProt P41143); assay: Radioligand competition binding, [3H]DPDPE, CHO-hDOR cell membranes
T4 construct: expressed in transfected cells; host or cells: CHO cells (CHO-hDOR), gift of Dr. Lawrence Toll, SRI International

[5] = Pharmacokinetic study: detection in brain homogenate by LC-DAD-MS (BBB permeability); format: in vivo; settings: 7.8 and 39 µmol/kg s.c., mice, brains two hours after treatment
Method: as §3
Two hours after the s.c. administration of LENART01 (doses of 7.8 and 39 µmol/kg), the mice were sacrificed and the brains were removed, washed with sterile physiological 0.9% saline and frozen in dry ice until use. […] The MS spectra were recorded in the negative ion mode only. The UV spectra were recorded over the range of 200–600 nm. […] The presence of the analyzed compound was checked by the monitoring of its pseudomolecular ion eluting at ca. 10 min. […]

mice [6] = assay: Naloxone-precipitated withdrawal syndrome after chronic s.c. treatment; format: in vivo; settings: 7.8 µmol/kg s.c. twice daily for 5 days; naloxone 1 mg/kg s.c. two hours after last injection; vs. saline
Method: as §1, §2

mice [7] = settings: s.c., 31 µmol/kg (10 mg/kg); cited from earlier work
mice [8] = settings: repeated s.c. administration, 15 µmol/kg (5 mg/kg); cited from earlier work

C[C@@H](NC(=O)[C@@H](N)Cc1ccc(O)cc1)C(=O)NCC(=O)N(C)[C@@H](Cc1ccccc1)C(=O)NCCO [DAMGO, reference compound]
% stim. (human MOR [1]): 100%

C[C@@H](NC(=O)[C@@H](N)Cc1ccc(O)cc1)C(=O)N[C@@H](Cc1ccccc1)C(=O)NCC(=O)N[C@@H](Cc1ccc(O)cc1)C(=O)N1CCC[C@H]1C(=O)N[C@@H](CO)C(N)=O [Dermorphin, reference compound]
Ki (human NOP receptor): > 10000 nM | Specific binding to human NOP receptor (human NOP receptor; at the concentration of 10 µM, [3H]nociceptin): no substantial binding | % stim. (human MOR [1]): 104 ± 8% | Ki (human KOR): 2710 ± 873 nM

CSCC[C@H](NC(=O)[C@H](Cc1ccccc1)NC(=O)[C@H](Cc1c[nH]cn1)NC(=O)CNC(=O)[C@H](CO)NC(=O)[C@@H]1CCCN1C(=O)[C@H](Cc1ccc(O)cc1)NC(=O)CNC(=O)[C@H](Cc1ccccc1)NC(=O)[C@@H](C)NC(=O)[C@@H](N)Cc1ccc(O)cc1)C(N)=O [LENART01] (H-Y[dA]FGYPSGHFM-NH2)
Effect on body weights [2]: did not have any significant effect on the body weights | Ki (human NOP receptor): > 10000 nM | Selectivity Ki Ratios NOP/MOR (human NOP receptor; Ki ratio NOP/MOR): >900 | Effect on rotarod latencies (motor behavior) (mice [3]): no significant alterations in the rotarod latencies | Ki (human MOR [4]): 11 ± 1.5 nM | Ki (human DOR; CHO-hDOR membranes, [3H]DPDPE 1 nM, mean ± SEM, n = 3, read-out: Opioid Receptor Binding (Ki, nM) DOR): 227 ± 47 nM | Selectivity Ki Ratios DOR/MOR (human DOR; Ki ratio DOR/MOR): 21 | Transport across the BBB (signal in brain homogenate) [5]: no detectable signal | EC50 (human MOR [1]): 48.5 ± 10.6 nM | % stim. (human MOR [1]): 110 ± 7% | Naloxone-precipitated withdrawal signs (mice [6]): did not induce withdrawal signs | Ki (human KOR): 1310 ± 226 nM | Selectivity Ki Ratios KOR/MOR (human KOR; Ki ratio KOR/MOR): 119

CN1CC[C@]23c4c5ccc(O)c4O[C@H]2[C@@H](O)C=C[C@H]3[C@H]1C5 [morphine]
Effect on time on the rotarod (mice [7]): significantly reduced time on the rotarod | Naloxone-induced withdrawal syndrome (mice [8]): significant naloxone-induced withdrawal syndrome

— article PMC11012005 (International Journal of Molecular Sciences, 2024)
